Source: US8247211B2, “Glycopeptide antibiotics” (American Cyanamid Company, priority 2001, dated 2012)
In brackets after ≈: the same amount, converted by molar mass.

Key:
Experiment in all cases: In vitro antibacterial evaluation: minimum inhibitory concentration (MIC), broth dilution method
Type in all cases: cell-based
Details in all cases: broth dilution, 18 hours at 35° C.
Streptococcus sp. = tested on: Streptococcus sp.
Method in brief: (§1)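 Using Muller-Hinton II […] and an inoculum of 5×10^5 CFU/mL, antibiotic dilutions from 64 down to 0.06 μg/mL were tested following NCCLS M7-A2. The MIC is the lowest concentration inhibiting growth, including in methicillin-, penicillin- or vancomycin-resistant clinical isolates.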

Staphylococcus sp. = tested on: Staphylococcus sp.
Method in brief: as §1

Enterococcus sp. = tested on: Enterococcus sp.
Method in brief: as §1

Escherichia coli = tested on: Escherichia coli

CC(c1ccccc1)C1NC(=O)CNC(=O)C(CO)NC(=O)C(C(O)C2CNC(=N)N2C2OC(CO)C(O)C(O)C2O)NC(=O)C(C(O)C2CNC(=N)N2)NC(=O)C(Cc2ccc3oc(C=C(c4ccccc4)c4ccccc4)nc3c2)NC1=O (stereo not drawn) [Example 39, Cyclo[3-[2-(2,2-diphenylethenyl)-1,3-benzoxazol-5-yl]alanyl-3-(2-iminoimidazolidin-4-yl)seryl-3-(3-hexopyranosyl-2-iminoimidazolidin-4-yl)serylserylglycyl-β-methylphenylalanyl]]
MIC Streptococcus agalactiae (GC 4564) (Streptococcus sp.; Streptococcus agalactiae (GC 4564)): 16 µg/mL (≈ 13.6 µM)
MIC Streptococcus pneumoniae (ATCC 6301) (Streptococcus sp.; Streptococcus pneumoniae (ATCC 6301)): 8 µg/mL (≈ 6.81 µM)
MIC Streptococcus pneumoniae (GC 1894) (Streptococcus sp.; Streptococcus pneumoniae (GC 1894)): 8 µg/mL (≈ 6.81 µM)
MIC Streptococcus pneumoniae (GC 4565) (Streptococcus sp.; Streptococcus pneumoniae (GC 4565)): 16 µg/mL (≈ 13.6 µM)
MIC Streptococcus pyogenes (GC 4563) (Streptococcus sp.; Streptococcus pyogenes (GC 4563)): 4 µg/mL (≈ 3.41 µM)
MIC Streptococcus agalactiae (GC 4564) (Streptococcus sp.): 16 µg/mL (≈ 13.6 µM)
MIC Streptococcus pneumoniae (ATCC 6301) (Streptococcus sp.): 8 µg/mL (≈ 6.81 µM)
MIC Streptococcus pneumoniae (GC 1894) (Streptococcus sp.): 8 µg/mL (≈ 6.81 µM)
MIC Streptococcus pneumoniae (GC 4565) (Streptococcus sp.): 16 µg/mL (≈ 13.6 µM)
MIC Streptococcus pyogenes (GC 4563) (Streptococcus sp.): 4 µg/mL (≈ 3.41 µM)
MIC Coagulase Negative Staphylococcus (GC 4547) (Staphylococcus sp.): 8 µg/mL (≈ 6.81 µM)
MIC Coagulase Negative Staphylococcus (GC 4548) (Staphylococcus sp.): 8 µg/mL (≈ 6.81 µM)
MIC Coagulase Negative Staphylococcus (GC 4549) (Staphylococcus sp.): 4 µg/mL (≈ 3.41 µM)
MIC Coagulase Negative Staphylococcus (GC 4551) (Staphylococcus sp.): 8 µg/mL (≈ 6.81 µM)
MIC Coagulase Negative Staphylococcus (GC 6257) (Staphylococcus sp.): 4 µg/mL (≈ 3.41 µM)
MIC Staphylococcus aureus SMITH (GC 4543) (Staphylococcus sp.): 16 µg/mL (≈ 13.6 µM)
MIC Staphylococcus haemolyticus (GC 4546) (Staphylococcus sp.): 8 µg/mL (≈ 6.81 µM)
MIC Staphylococcus aureus-SMITH (GC 4543) (Staphylococcus sp.; strain SMITH GC 4543): 16 µg/mL (≈ 13.6 µM)
MIC Enterococcus avium (GC 4558) (Enterococcus sp.; Enterococcus avium (GC 4558)): 8 µg/mL (≈ 6.81 µM)
MIC Enterococcus faecalis (ATCC 29212) (Enterococcus sp.; Enterococcus faecalis (ATCC 29212)): 16 µg/mL (≈ 13.6 µM)
MIC Enterococcus faecalis (GC 2242) (Enterococcus sp.; Enterococcus faecalis (GC 2242)): 16 µg/mL (≈ 13.6 µM)
MIC Enterococcus faecalis (GC 2691) (Enterococcus sp.; Enterococcus faecalis (GC 2691)): 16 µg/mL (≈ 13.6 µM)
MIC Enterococcus faecalis (GC 3059) (Enterococcus sp.; Enterococcus faecalis (GC 3059)): 16 µg/mL (≈ 13.6 µM)
MIC Enterococcus faecalis (GC 4552) (Enterococcus sp.; Enterococcus faecalis (GC 4552)): 16 µg/mL (≈ 13.6 µM)
MIC Enterococcus faecalis (GC 4553) (Enterococcus sp.; Enterococcus faecalis (GC 4553)): 8 µg/mL (≈ 6.81 µM)
MIC Enterococcus faecalis (GC 4554) (Enterococcus sp.; Enterococcus faecalis (GC 4554)): 32 µg/mL (≈ 27.3 µM)
MIC Enterococcus faecalis (GC 6189) (Enterococcus sp.; Enterococcus faecalis (GC 6189)): 16 µg/mL (≈ 13.6 µM)
MIC Enterococcus faecium (GC 2243) (Enterococcus sp.; Enterococcus faecium (GC 2243)): 8 µg/mL (≈ 6.81 µM)
MIC Enterococcus faecium (GC 4556) (Enterococcus sp.; Enterococcus faecium (GC 4556)): 32 µg/mL (≈ 27.3 µM)
MIC Enterococcus faecium (GC 4557) (Enterococcus sp.; Enterococcus faecium (GC 4557)): 8 µg/mL (≈ 6.81 µM)
MIC Enterococcus avium (GC 4558) (Enterococcus sp.): 8 µg/mL (≈ 6.81 µM)
MIC Enterococcus faecalis (ATCC 29212) (Enterococcus sp.): 16 µg/mL (≈ 13.6 µM)
MIC Enterococcus faecalis (GC 2242) (Enterococcus sp.): 16 µg/mL (≈ 13.6 µM)
MIC Enterococcus faecalis (GC 2691) (Enterococcus sp.): 16 µg/mL (≈ 13.6 µM)
MIC Enterococcus faecalis (GC 3059) (Enterococcus sp.): 16 µg/mL (≈ 13.6 µM)
MIC Enterococcus faecalis (GC 4552) (Enterococcus sp.): 16 µg/mL (≈ 13.6 µM)
MIC Enterococcus faecalis (GC 4553) (Enterococcus sp.): 8 µg/mL (≈ 6.81 µM)
MIC Enterococcus faecalis (GC 4554) (Enterococcus sp.): 32 µg/mL (≈ 27.3 µM)
MIC Enterococcus faecalis (GC 6189) (Enterococcus sp.): 16 µg/mL (≈ 13.6 µM)
MIC Enterococcus faecium (GC 2243) (Enterococcus sp.): 8 µg/mL (≈ 6.81 µM)
MIC Enterococcus faecium (GC 4556) (Enterococcus sp.): 32 µg/mL (≈ 27.3 µM)
MIC Enterococcus faecium (GC 4557) (Enterococcus sp.): 8 µg/mL (≈ 6.81 µM)
MIC Escherichia coli (GC 4560) (Escherichia coli): 16 µg/mL (≈ 13.6 µM)
